One may read the IC50 as the concentration needed to halve the response being measured.

This is an account of results in US20250270190A1, “KIT INHIBITORS” (BLUEPRINT MEDICINES CORPORATION, priority 2022, published 2025).

T1 sequence (P10721 26-976 V560G/V654A): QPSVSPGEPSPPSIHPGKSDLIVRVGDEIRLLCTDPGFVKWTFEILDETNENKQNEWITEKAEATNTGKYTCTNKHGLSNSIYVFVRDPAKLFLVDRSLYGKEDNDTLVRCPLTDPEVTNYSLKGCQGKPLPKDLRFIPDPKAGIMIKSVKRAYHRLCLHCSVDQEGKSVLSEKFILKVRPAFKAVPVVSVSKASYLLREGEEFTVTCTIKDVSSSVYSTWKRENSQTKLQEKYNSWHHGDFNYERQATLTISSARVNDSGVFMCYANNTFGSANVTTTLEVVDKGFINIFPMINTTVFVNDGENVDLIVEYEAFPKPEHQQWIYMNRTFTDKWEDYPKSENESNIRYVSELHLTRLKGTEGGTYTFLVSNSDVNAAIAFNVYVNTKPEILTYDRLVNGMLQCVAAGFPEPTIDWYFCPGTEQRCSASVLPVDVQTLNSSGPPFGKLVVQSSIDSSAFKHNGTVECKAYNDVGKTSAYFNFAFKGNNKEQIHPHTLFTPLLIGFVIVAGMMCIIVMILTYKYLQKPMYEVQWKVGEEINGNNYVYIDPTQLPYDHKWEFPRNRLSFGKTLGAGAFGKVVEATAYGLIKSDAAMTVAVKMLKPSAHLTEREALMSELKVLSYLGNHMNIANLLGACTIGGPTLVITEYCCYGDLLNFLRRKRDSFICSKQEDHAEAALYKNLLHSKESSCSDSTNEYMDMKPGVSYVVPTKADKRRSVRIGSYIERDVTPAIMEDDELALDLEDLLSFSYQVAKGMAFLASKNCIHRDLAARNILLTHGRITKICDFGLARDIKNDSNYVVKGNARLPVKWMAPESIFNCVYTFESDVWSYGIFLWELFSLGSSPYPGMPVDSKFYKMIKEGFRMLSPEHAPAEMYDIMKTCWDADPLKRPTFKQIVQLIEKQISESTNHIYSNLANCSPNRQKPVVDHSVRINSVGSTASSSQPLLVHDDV

This assay addresses T1, c-kit autophosphorylation (Phospho c-Kit Tyr721) in HMC 1.1 (exon 11/13) cells, V654A (Homo sapiens, UniProt P10721, V560G/V654A).
T1 construct: endogenous in cells; host or cells: HMC 1.1 (exon 11/13) cells
The assay can be described thus: pKIT Meso Scale Discovery (MSD) assay, inhibition of autophosphorylation of KIT, HMC1.1_V654A. Particulars: Table 1, cell line not named for Table 1, b1056 names pKIT HMC1.1_V654A, read-out: Code (IC50 for inhibition of autophosphorylation of KIT, pKIT MSD assay). The assay is classed as cell-based. The text has this:
In this MSD assay, specific capture antibodies for the analytes were coated in arrays in each well of a 96-well carbon electrode plate surface. The detection system used SULFO-TAG™ labels that emit light upon electrochemical stimulation initiated at the electrode surfaces of the […] and MULTI-SPOT® plates. The electrical stimulation was decoupled from the output signal, which was light and generated assays with minimal background. The goal of this assay was to assess the percent inhibition of autophosphorylation of c-kit in cells when treated with compounds of the disclosure in a dose-dependent manner.
HMC1.1 cells were maintained in IMDM media supplemented with 20% Calf Serum with Iron and 100 units/mL Penicillin-Streptomycin and grown in a 37° C. humidified tissue culture incubator. HMC1.1 cells were passaged by 1:5 dilution into fresh IMDM media supplemented with 20% Calf Serum with Iron and 100 units/mL Penicillin-Streptomycin every 5-7 days and were discarded after 20 passages.
Seeding was performed as follows: HMC cells were brought to 1×10^6 cells/mL in fresh phenol red free, serum-free, iron-free IDM media with Pen/Strep; cells were seeded/plated into respective U-bottom plate by dispensing 50 μL/well (50,000 cells) using the Multidrop, and covered and incubated cells at 37° C. in a humidified tissue culture incubator for 4 hours (starvation).
Dosing was performed as follows: The compound mother plate was prepared by adding 16 μL of compound to 24 μL of DMSO to row A, odd-numbered columns of screen matrix plate. […] Intermediate plates were prepared in V-bottom plates by dispensing 98 μL of phenol red free, serum free IMDM media with Pen/Strep into all wells. 2 μL DMSO or 2 μL 10 mM staurosporine was added to appropriate control wells. At the end of four hours, the Bravo protocol 10 cpds vertical dose MSD 2 U-plates 96-well was used to: add 2 μL from the compound plate to the intermediate plate and dose cells with 7 μL from the intermediate plate. The cells were covered and incubated at 37° C. in a humidified tissue culture incubator for 90 min. The complete lysis buffer was prepared with AlphaLISA 5× Lysis Buffer supplemented with 1× protease inhibitor cocktail and kept on ice. The cells were pelleted by centrifuging plate at 2500×g for 5 min, 4° C. and media removed. Complete lysis buffer was added (14 μL/well). The cells were covered and shaken at 4° C. on a plate shaker at 600 rpm for 30 min and kept cold
The MSD protocol was preformed as follows: Tris Wash Buffer (2L) was prepared by diluting 10× stock of Tris Wash Buffer to 1× in water. Blocking Solution was prepared by dissolving 600 mg Blocker A in 20 mL 1× Trish Wash Buffer (per plate). The Antibody Dilution Buffer was prepared by mixing 1 mL Blocking solution and 2 mL 1× Trish Wash Buffer (per plate) and kept on ice. Blocking Solution was added (150 μL/well) to each MSD plate using a multichannel repeater pipette. The plate was covered and incubated at room temperature on a plate shaker at 700 rpm for hr. The Bio Tek protocol RL-96w-wash-MSD_stacker_fromC was used to wash plates 3× with 150 μL/well. Cells were pelleted by centrifuging lysate plates at 2500×g for 5 mins. The Bravo protocol was used (transfer 25 ul supernatants from V-96 to assay plate) to transfer 25 μL sample lysate per well to each MSD plate. The plates were covered and incubated at room temperature on a plate shaker at 700 rpm for hr. The Bio Tek protocol RL-96w-wash-MSD_stacker_fromC was used to wash plates 3× with 150 μL/well. The Detection Antibody Solution was prepared by diluting the 60 μL of the 50× antibody stock in 2.94 mL of the Antibody Dilution Buffer (per plate) and kept on ice. 25 μL/well of detection antibody solution was added to each MSD plate. The plates were covered and incubated at room temperature on a plate shaker at 700 rpm for 1 hr. The Read Buffer was prepared by diluting 5 mL of 4× stock of Read Buffer to 1× in 15 mL water (per plate).
On to `Nc1cc(Nc2cc(OC3CC3)c(-c3cnn(C[C@@H]4CCN4)c3)cn2)nc(C(F)F)n1` (single isomer, unassigned) [Compound 162, (S)-N4-(5-(1-(azetidin-2-ylmethyl)-1H-pyrazol-4-yl)-4-cyclopropoxypyridin-2-yl)-2-(difluoromethyl)pyrimidine-4,6-diamine or (R)-N4-(5-(1-(azetidin-2-ylmethyl)-1H-pyrazol-4-yl)-4-cyclopropoxypyridin-2-yl)-2-(difluoromethyl)pyrimidine-4,6-diamine], for which the IC50 is < 10 nM.

On to `Nc1cc(Nc2cc(OC3CC3)c(-c3cnn([C@H]4CCOC4)c3)cn2)nc(C(F)F)n1` (single isomer, unassigned) [Compound 164, (S)—N4-(4-cyclopropoxy-5-(1-(tetrahydrofuran-3-yl)-1H-pyrazol-4-yl)pyridin-2-yl)-2-(difluoromethyl)pyrimidine-4,6-diamine or (R)—N4-(4-cyclopropoxy-5-(1-(tetrahydrofuran-3-yl)-1H-pyrazol-4-yl)pyridin-2-yl)-2-(difluoromethyl)pyrimidine-4,6-diamine], for which the IC50 is < 10 nM.

In the case of `Nc1cc(Nc2cc(OC3CC3)c(-c3cnn([C@@H]4CCOC4)c3)cn2)nc(C(F)F)n1` (single isomer, unassigned) [Compound 165, (R)—N4-(4-cyclopropoxy-5-(1-(tetrahydrofuran-3-yl)-1H-pyrazol-4-yl)pyridin-2-yl)-2-(difluoromethyl)pyrimidine-4,6-diamine or (S)—N4-(4-cyclopropoxy-5-(1-(tetrahydrofuran-3-yl)-1H-pyrazol-4-yl)pyridin-2-yl)-2-(difluoromethyl)pyrimidine-4,6-diamine], the IC50 is < 10 nM.

For the compound `CN[C@@H](C)Cn1cc(-c2cnc(Nc3cc(N)nc(C(F)F)n3)cc2OC(F)(F)F)cn1` (single isomer, unassigned) [Compound 195, (S)-2-(difluoromethyl)-N4-(5-(1-(2-(methylamino)propyl)-1H-pyrazol-4-yl)-4-(trifluoromethoxy)pyridin-2-yl)pyrimidine-4,6-diamine or (R)-2-(difluoromethyl)-N4-(5-(1-(2-(methylamino)propyl)-1H-pyrazol-4-yl)-4-(trifluoromethoxy)pyridin-2-yl)pyrimidine-4,6-diamine], the IC50 was < 10 nM.

Regarding `CN[C@H](C)Cn1cc(-c2cnc(Nc3cc(N)nc(C(F)F)n3)cc2OC(F)(F)F)cn1` (single isomer, unassigned) [Compound 196, (R)-2-(difluoromethyl)-N4-(5-(1-(2-(methylamino)propyl)-1H-pyrazol-4-yl)-4-(trifluoromethoxy)pyridin-2-yl)pyrimidine-4,6-diamine or (S)-2-(difluoromethyl)-N4-(5-(1-(2-(methylamino)propyl)-1H-pyrazol-4-yl)-4-(trifluoromethoxy)pyridin-2-yl)pyrimidine-4,6-diamine], the IC50 is < 10 nM.

With `CNC(=O)c1cnc(Nc2cc(N)nc(CF)n2)cc1NC` [Compound 1, 6-((6-amino-2-(fluoromethyl)pyrimidin-4-yl)amino)-N-methyl-4-(methylamino)nicotinamide], the IC50 fell in the range of 10 to 40 nM.

On to `CNc1cc(Nc2cc(N)nc(C(F)F)n2)ncc1C(N)=O` [Compound 2, 6-((6-amino-2-(difluoromethyl)pyrimidin-4-yl)amino)-4-(methylamino)nicotinamide], for which the IC50 is > 40 nM.

For `CNC(=O)c1cnc(Nc2cc(N)nc([C@H](C)F)n2)cc1NC` [Compound 3, (S)-6-((6-amino-2-(1-fluoroethyl)pyrimidin-4-yl)amino)-N-methyl-4-(methylamino)nicotinamide], the IC50 lay in the range of 10 to 40 nM.

For the compound `CNC(=O)c1cnc(Nc2cc(N)nc(C(F)F)n2)cc1NC` [Compound 4, 6-((6-amino-2-(difluoromethyl)pyrimidin-4-yl)amino)-N-methyl-4-(methylamino)nicotinamide], the IC50 is < 10 nM.

Turning to `[2H]C([2H])([2H])Nc1cc(Nc2cc(N)nc(C(F)F)n2)ncc1C(=O)NC` [Compound 5, 6-((6-amino-2-(difluoromethyl)pyrimidin-4-yl)amino)-N-methyl-4-((methyl-d3)amino)nicotinamide], the IC50 was < 10 nM.

With `[2H]C([2H])([2H])NC(=O)c1cnc(Nc2cc(N)nc(C(F)F)n2)cc1NC` [Compound 6, 6-((6-amino-2-(difluoromethyl)pyrimidin-4-yl)amino)-N-(methyl-d3)-4-(methylamino)nicotinamide], the IC50 was in the range of 10 to 40 nM.

As for `CNc1cc(Nc2cc(N)nc(CF)n2)ncc1C(=O)NC1CC1` [Compound 7, 6-((6-amino-2-(fluoromethyl)pyrimidin-4-yl)amino)-N-cyclopropyl-4-(methylamino)nicotinamide], the IC50 was 10 to 40 nM.

In the case of `CNC(=O)c1cnc(Nc2cc(N)nc(CF)n2)cc1NC1CC1` [Compound 8, 6-((6-amino-2-(fluoromethyl)pyrimidin-4-yl)amino)-4-(cyclopropylamino)-N-methylnicotinamide], the IC50 is < 10 nM.

Turning to `CNC(=O)c1cnc(Nc2cc(N)nc(CF)n2)cc1NC(C)C` [Compound 9, 6-((6-amino-2-(fluoromethyl)pyrimidin-4-yl)amino)-4-(isopropylamino)-N-methylnicotinamide], the IC50 was < 10 nM.

As for `CCNc1cc(Nc2cc(N)nc([C@@H](C)F)n2)ncc1C(=O)NC` [Compound 10, (R)-6-((6-amino-2-(1-fluoroethyl)pyrimidin-4-yl)amino)-4-(ethylamino)-N-methylnicotinamide], the IC50 was > 40 nM.

Turning to `CCNc1cc(Nc2cc(N)nc([C@H](C)F)n2)ncc1C(=O)NC` [Compound 11, (S)-6-((6-amino-2-(1-fluoroethyl)pyrimidin-4-yl)amino)-4-(ethylamino)-N-methylnicotinamide], the 50% inhibitory concentration (IC50) is < 10 nM.

Turning to `CCNc1cc(Nc2cc(N)nc(C(F)F)n2)ncc1C(=O)NC` [Compound 12, 6-((6-amino-2-(difluoromethyl)pyrimidin-4-yl)amino)-4-(ethylamino)-N-methylnicotinamide], the concentration for half-maximal inhibition (IC50) was < 10 nM.

Regarding `CCNC(=O)c1cnc(Nc2cc(N)nc(C(F)F)n2)cc1NC` [Compound 13, 6-((6-amino-2-(difluoromethyl)pyrimidin-4-yl)amino)-N-ethyl-4-(methylamino)nicotinamide], the IC50 lay in the range of 10 to 40 nM.

With `CNC(=O)c1cnc(Nc2cc(N)nc(CF)n2)cc1NC1CCC1` [Compound 14, 6-((6-amino-2-(fluoromethyl)pyrimidin-4-yl)amino)-4-(cyclobutylamino)-N-methylnicotinamide], the IC50 was < 10 nM.

In the case of `CNC(=O)c1cnc(Nc2cc(N)nc([C@H](C)F)n2)cc1NC1CC1` [Compound 15, (S)-6-((6-amino-2-(1-fluoroethyl)pyrimidin-4-yl)amino)-4-(cyclopropylamino)-N-methylnicotinamide], the IC50 was 10 to 40 nM.

On to `CNc1cc(Nc2cc(N)nc(C(F)F)n2)ncc1-c1cn(C)nn1` [Compound 17, 2-(difluoromethyl)-N4-(5-(1-methyl-1H-1,2,3-triazol-4-yl)-4-(methylamino)pyridin-2-yl)pyrimidine-4,6-diamine], for which the IC50 fell in the range of 10 to 40 nM.

`CNc1cc(Nc2cc(N)nc(C(F)F)n2)ncc1-c1cnn(C)n1` [Compound 18, 2-(difluoromethyl)-N4-(5-(2-methyl-2H-1,2,3-triazol-4-yl)-4-(methylamino)pyridin-2-yl)pyrimidine-4,6-diamine]: the IC50 was 10 to 40 nM.
